Measured values published in patent KR20170078259A, “아이소스테비올을 포함하는 피부상태 개선용 조성물” (주식회사 엘지생활건강, priority 2015, dated 2017).
“Also recorded” adds a separate entry of the source. Values belong to the molecule of their own block, whether it stands above or below them.

Tests used:
[1] = Anti-glycation (L-arginine and glucose); format: biochemical; conditions: for inhibition rate: 70 °C, 4 h, 420 nm
[2] = tested on: B-16 mouse melanoma cell (쥐의 멜라노마 세포); assay: Total melanin increase in B-16 mouse melanoma cells (darkening effect); format: cell-based; conditions: for melanin production: absorbance at 400 nm per 1×10^6 cells
[3] = target: T1, elastase derived from human leukocytes (사람의 백혈구 세포로부터 유래한 엘라스테이즈) (Homo sapiens, UniProt P08246); assay: Elastase activity inhibition (MeOSuc-Ala-Ala-Pro-Val-pNA substrate); format: biochemical; conditions: for elastase activity inhibition (in words): compared with quercetin; for enzyme activity: slope of absorbance at 405 nm
T1 construct: 사람의 백혈구 세포로부터 유래한 엘라스테이즈를 사용하였고; from tissue; host or cells: human leukocytes
T1 sequence (P08246 30-267): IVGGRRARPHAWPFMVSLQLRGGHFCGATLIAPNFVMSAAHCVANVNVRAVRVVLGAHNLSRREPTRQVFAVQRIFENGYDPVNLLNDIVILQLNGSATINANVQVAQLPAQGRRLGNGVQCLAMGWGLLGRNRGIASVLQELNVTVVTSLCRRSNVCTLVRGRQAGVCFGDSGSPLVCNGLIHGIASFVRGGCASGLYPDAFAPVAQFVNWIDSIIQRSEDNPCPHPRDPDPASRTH

[4] = tested on: human-derived fibroblasts, type I collagen (인간 유래 섬유아세포, 제1형 콜라겐); assay: Type I collagen synthesis promotion in human-derived fibroblasts (PICP EIA kit); format: cell-based
[5] = 10 ppm, room temperature, 20 min, n = 3, read-out: inhibition rate

Structure (SMILES): N=C(N)NN [Aminoguanidine, reference compound]
- inhibition rate ([1]; aminoguanidine positive control, 55 ppm): 54.89%

Structure (SMILES): C=C[C@@]1(C)CC(=O)[C@]2(O)[C@@]3(C)[C@@H](O)CCC(C)(C)[C@@H]3[C@H](O)[C@H](OC(C)=O)[C@@]2(C)O1 [Forskolin, reference compound]
- melanin production ([2]; 10 ppm, 3 days): 0.792 abs
- activation at 10 ppm ([2]; Mus musculus, 72 h, 10 ppm, 3 days, relative to control, read-out: increase rate (total melanin)): 140%

Structure (SMILES): O=c1c(O)c(-c2ccc(O)c(O)c2)oc2cc(O)cc(O)c12 [Quercetin, reference compound]
- inhibition at 10 ppm [3, 5]: 69.2%

Structure (SMILES): O=C1O[C@H]([C@@H](O)CO)C(O)=C1O [비타민C, reference compound]
- activation at 52.85 ppm ([4]; Homo sapiens, Fibroblast, vitamin C positive control, 52.85 ppm, 48 h, relative to negative control, n = 4, read-out: increase rate (type I collagen production)): 64.3%
- type I collagen production ([4]; vitamin C positive control, 52.85 ppm, 48 h, n = 4): 246.8 ng/mL

- inhibition at 10 ppm [3, 5]: 55.8%
- enzyme activity ([3]; 10 ppm, room temperature, 20 min, n = 3): 4.6
- elastase activity inhibition (in words) ([3]; 20 ppm): 퀘르세틴보다 우수한 엘라스테이즈 활성 저해 효과가 나타나
- inhibition at 20 ppm ([3]; 20 ppm, room temperature, 20 min, n = 3, read-out: inhibition rate): 69.2%
- enzyme activity ([3]; 20 ppm, room temperature, 20 min, n = 3): 3.2
Structure (SMILES): C[C@@]12CC[C@@H]3[C@@](CC[C@H]4[C@@]3(C)CCC[C@@]4(C)C(=O)O)(CC1=O)C2 [화학식 1의 화합물, (4α,8β,13β)-13-Methyl-16-oxo-17-norkauran-18-oic acid]
- inhibition rate ([1]; 25 ppm): 51.12%
- inhibition rate ([1]; 50 ppm): 69.22%
- anti-glycation effect (in words) ([1]; compared with aminoguanidine): 항당화 효과가 더욱 뛰어남
- collagen synthesis effect (in words) ([4]; 1 and 10 ppm, compared with vitamin C): 농도 의존적으로 콜라겐 합성량이 증가되었고; also recorded: 비타민C를 적용한 경우보다 더 낮은 농도에서 유사한 콜라겐 합성 효과를 나타내었다
- type I collagen production ([4]; 1 ppm, 48 h, n = 4): 187.6 ng/mL
- type I collagen production ([4]; 10 ppm, 48 h, n = 4): 265.5 ng/mL
- activation at 1 ppm ([4]; Homo sapiens, Fibroblast, 1 ppm, 48 h, relative to negative control, n = 4, read-out: increase rate (type I collagen production)): 24.9%
- activation at 10 ppm ([4]; Homo sapiens, Fibroblast, 10 ppm, 48 h, relative to negative control, n = 4, read-out: increase rate (type I collagen production)): 76.8%
- melanin production ([2]; 1 ppm, 3 days): 0.662 abs
- total melanin increase effect (in words) ([2]; 10 ppm, compared with forskolin): 10 ppm에서도 상당히 우수한 멜라닌 총량 증가 효과
- melanin production ([2]; 20 ppm as printed in table, 3 days): 0.831 abs
- activation at 1 ppm ([2]; Mus musculus, 72 h, 1 ppm, 3 days, relative to control, read-out: increase rate (total melanin)): 101%
- activation at 20 ppm ([2]; Mus musculus, 72 h, 20 ppm as printed in table, 3 days, relative to control, read-out: increase rate (total melanin)): 152%
- elastase activity inhibition (in words) ([3]; 10 ppm): 엘라스테이즈 활성 저해 효과가 양성대조군인 퀘르세틴에 상응하는 정도로 높게 나타났으며
